According to PMC9421656, “Beyond Retigabine: Design, Synthesis, and Pharmacological Characterization of a Potent and Chemically Stable Neuronal Kv7 Channel Activator with Anticonvulsant Activity” (Journal of Medicinal Chemistry, 2022):
Where “and” joins values, the source holds several entries; their conditions need not be identical. Equal values may be shown once.

Experiments:
[1] = Photostability under UV-visible light with HPLC analysis (degradation, dimer formation); type: physicochemical; conditions: for % Degradation (3h, UV): 10 μM, buffered aqueous solution pH 7.4, 3 h UV-visible light, ± SD; for Dimers Formation: HPLC at 550 nm
Excerpt: Two different HPLC wavelengths were utilized: (a) […] to evaluate the decreased concentration of the starting molecule; (b) 550 nm to investigate the formation of phenazine/phenazinium dimers, as previously described.[10] Unfortunately, dimer formation was detected for all tested compounds, except for 23 and 24. […]. […]. The first group consisted of N4 (−X- in Table 2) substituted analogues, in which the tertiary amine is unavailable for the formation of phenazine dimers (compounds 25–28). […]. The third group included derivatives replacing hydrogen atoms with electron-withdrawing fluorine atoms at position R2 of the benzene-1,2,4-triamine core scaffold (compounds 59, 60), a strategy likely reducing the reactivity of N2 and N4. […].
Photostability experiments were performed by dissolving compounds in DMSO and then diluting in buffered aqueous solutions at pH 7.4 to a final concentration of 10 μM. 1 cm quartz cells, filled with the abovementioned solutions, were irradiated by a UV lamp (UV Consulting TQ 150 equipped with Duran 50 sleeve and 150 W power supply unit, Peschl, Germany) at a fixed distance of 20 cm from the UV source. Control samples were maintained at 37 °C, wrapped with aluminum foil to avoid light exposure, and used to assess chemical stability of the compounds. At predetermined intervals, aliquots were withdrawn and analyzed by UHPLC in order to assess the concentration decrease of the starting materials and the presence of the dimers usually formed by retigabine.
Photostability and chemical stability experiments were carried out on a Kinetex^TM C18 150 × 2.1 mm × 2.6 μm (100 Å) column (Phenomenex, Bologna, Italy). The optimal mobile phase consisted of 0.1% TFA/H2O v/v (A) and 0.1% TFA/ACN v/v (B). Analysis was performed in gradient elution as follows: 0–13.0 min, 5–65% B; 13–14.0 min, 65–95% B; 14–15.0 min, isocratic to 95% B; 15–15.01 min, 95–5% B; then 3 min for column re-equilibration. The flow rate was 0.5 mL min^–1. The column oven temperature was set to 45 °C. The injection volume was 7 μL of sample. The following PDA parameters were applied: sampling rate, 12.5 Hz; detector time constant, 0.160 s; cell temperature, 40 °C. Data acquisition was set in the range 190–800 nm, and chromatograms were monitored at 224 nm to assess the decrease in concentration of the starting material, while a wavelength of 550 nm was used to eventually detect dimerization.

[2] = molecular target: Kv7.2/Kv7.3 channels (Homo sapiens, UniProt O43525+O43526); assay: FluxOR thallium-sensitive fluorescence-based assay in CHO cells stably expressing Kv7.2 + Kv7.3; type: cell-based; set-up: expressed in transfected cells; conditions: 10 μM; for Kv7 opening activity (in words): compared with retigabine or the reference compound of the subseries; for Slope of the fluorescent signal at 10 μM: initial slope of FluxOR signal between 5 and 15 s, mean ± SEM
Protocol: While assay robustness in Kv7.2/Kv7.3-expressing cells was high (Z′ factor > 0.5),[27] the Z′ factor calculated in CHO cells expressing Kv7.2 subunits alone was <0.5; thus, all subsequent pharmacological screens were performed in Kv7.2/Kv7.3-expressing cells. […] The Kv7.2/Kv7.3-stable cell line was generated using a plasmid-based PiggyBac transposon system that enables genomic integration of multiple independent transposons containing distinct cDNA sequences. cDNAs for KCNQ2 and KCNQ3 genes (encoding for Kv7.2 and Kv7.3, respectively) were cloned into two different PiggyBac expression vectors (pB-CMV-MCS-EF1α-RedPuro, System Biosciences), and these two plasmids, together with a plasmid encoding for the transposase (System Biosciences), were transfected into CHO cells using Lipofectamine 2000 (Invitrogen) as indicated in the protocol provided by the seller company.
The selected clone stably expressing Kv7.2/Kv7.3 channels was grown in DMEM supplemented with 10% FBS, 50 U/mL Pen-Strep, 2 mM L-glutamine (all purchased from Gibco), and 4 μg/mL puromycin (Sigma) in a humidified atmosphere at 37 °C with 5% CO2. […] A kinetic dispense microplate reader (FLUOstar Optima) was used to read the plate, setting the excitation filter at 485 nm and the emission filter at 520 nm; “Stimulus buffer” prepared as indicated in the protocol was automatically added to wells after 5 s of recording; the plate was read every 1 s, for 50 s. The results were analyzed using Optima Data Analysis and Microsoft Excel.
Only experiments resulting in a Z′ > 0.5 were considered. Data shown (Figures 1D,E,F,G and 3B) were obtained from at least three independent experiments.
Data were analyzed using the GraphPad Prism 8.0.2 (GraphPad Software, LaJolla, CA). Statistically significant differences in the initial slope of the curves were evaluated through ordinary one-way ANOVA, and multiple comparisons were corrected with the Tukey test. […] Indicated EC50 values are the mean of at least three independent experiments ± standard error of the mean (SEM).

| % Degradation (3h, UV) [1] | Dimers Formation ([1]; 3 h UV-visible light) | Kv7 opening activity (in words) [2] | Slope of the fluorescent signal at 10 μM [2] | Molecule | Photodegradation (in words) ([1]; 3 h UV-visible light, compared with retigabine) |
| --- | --- | --- | --- | --- | --- |
| 74.9± 0.1% | Yes | no change in activity | 0.0448±0.0035 | CCCCCCC(=O)Nc1ccc(NCc2ccccc2F)cc1N [compound 52, N-(2-Amino-4-((2-fluorobenzyl)amino)phenyl)heptanamide] | – |
| – | – | complete loss of activity | 0.0066±0.0006 | CCCCCCNC(=O)c1ccc(NCc2ccc(C(F)(F)F)cc2)cc1N [compound 71, 2-Amino-N-hexyl-4-((4-(trifluoromethyl)benzyl)amino)benzamide] | – |
| – | – | complete loss of activity | 0.0071±0.0004 | CCCCCCC(=O)Nc1ccc(NCc2ccccn2)cc1N [compound 47, N-(2-Amino-4-((pyridin-2-ylmethyl)amino)phenyl)heptanamide] | – |
| – | – | failed to activate Kv7.2/ Kv7.3 channels | 0.0073±0.0005 | CC(C)(C)CC(=O)Nc1ccc(CCc2ccc(C(F)(F)F)cc2)cc1N [compound 68, N-(2-Amino-4-(4-(trifluoromethyl)phenethyl)phenyl)-3,3-dimethylbutanamide] | – |
| – | – | complete loss of activity | 0.0063±0.0002 | CCCCCCC(=O)Nc1ccc(NCc2ccncc2)cc1N [compound 51, N-(2-Amino-4-((pyridin-4-ylmethyl)amino)phenyl)heptanamide] | – |
| – | – | similar | 0.0345±0.0026 | CCCCCCC(=O)Nc1ccc(NCc2ccc(C(F)(F)F)cc2)c(F)c1N [compound 59, N-(2-Amino-3-fluoro-4-((4-(trifluoromethyl)benzyl)amino)phenyl)heptanamide] | – |
| – | – | complete loss of activity | 0.0068±0.0003 | CCCCCCC(=O)Nc1ccc(NCc2ccc(O)cc2)cc1N [compound 57, N-(2-Amino-4-((4-hydroxybenzyl)amino)phenyl)heptanamide] | – |

The next lines start with the molecule.

| Molecule | % Degradation (3h, UV) [1] | Dimers Formation ([1]; 3 h UV-visible light) | Kv7 opening activity (in words) [2] | Slope of the fluorescent signal at 10 μM [2] | Photodegradation (in words) ([1]; 3 h UV-visible light, compared with retigabine) |
| --- | --- | --- | --- | --- | --- |
| CC(C)(C)CC(=O)Nc1ccc(NCc2c(F)cccc2F)cc1N [compound 43, N-(2-Amino-4-((2,6-difluorobenzyl)amino)phenyl)-3,3-dimethylbutanamide] | 98.4±0.2% | Yes | still displayed strong activity | 0.0534±0.0028 | – |
| CCCCCCCC(=O)Nc1ccc(NCc2ccc(C(F)(F)F)cc2)cc1N [compound 14, N-(2-Amino-4-((4-(trifluoromethyl)benzyl)amino)phenyl)octanamide] | 73.2±0.4% | Yes | – | 0.0563±0.0039 | – |
| COCCOCC(=O)Nc1ccc(NCc2ccc(C(F)(F)F)cc2)cc1N [compound 20, N-(2-Amino-4-((4-(trifluoromethyl)benzyl)amino)phenyl)-2-(2-methoxyethoxy)acetamide] | – | – | complete loss of activity | 0.0062±0.0005 | – |
| CCCCCCC(=O)Nc1ccc(NCc2ccccc2)cc1N [compound 41, N-(2-Amino-4-(benzylamino)phenyl)heptanamide] | 19.5±4.7% | Yes | no change in activity | 0.0476±0.0030 | – |
| CC(C)(C)CC(=O)Nc1ccc(NCc2ccc(C(F)(F)F)cc2)cc1N [compound 17, N-(2-Amino-4-((4-(trifluoromethyl)benzyl)amino)phenyl)-3,3-dimethylbutanamide] | 79.8 ± 4.2% | Yes | – | 0.0512±0.0040 | – |
| CCCCCCC(=O)Nc1ccc(N(CCC)Cc2ccc(C(F)(F)F)cc2)cc1N [compound 27, N-(2-Amino-4-(propyl(4-(trifluoromethyl)benzyl)amino)phenyl)heptanamide] | – | – | did not improve activity | 0.0363±0.0052 | – |
| N-(2-Amino-4-(4-(trifluoromethyl)phenethyl)phenyl)heptanamide [compound 67] | – | – | failed to activate Kv7.2/ Kv7.3 channels | 0.0087±0.0002 | – |
| CC(C)(C)CC(=O)Nc1ccc(NCc2ccc(C(F)(F)F)cc2)cc1N1CCCCC1 [compound 24, 3,3-Dimethyl-N-(2-(piperidin-1-yl)-4-((4-(trifluoromethyl)benzyl)amino)phenyl)butanamide] | 79.8 ± 4.2% | inability of compounds 23 and 24 to form dimers and No | comparable to that of the reference compound 17 | 0.0591±0.0043 | enhanced degradation when compared to retigabine |
| CCCCCCCCCCCC(=O)Nc1ccc(NCc2ccc(C(F)(F)F)cc2)cc1N [compound 16, N-(2-Amino-4-((4-(trifluoromethyl)benzyl)amino)phenyl)dodecanamide] | – | – | progressive decrease in Kv7 opening ability | 0.0084±0.0004 | – |
| CCCCCCCCCC(=O)Nc1ccc(NCc2ccc(C(F)(F)F)cc2)cc1N [compound 15, N-(2-Amino-4-((4-(trifluoromethyl)benzyl)amino)phenyl)decanamide] | – | – | progressive decrease in Kv7 opening ability | 0.0261±0.0030 | – |
| CCCCCCC(=O)Nc1ccc(NCc2ccc(C(F)(F)F)cc2)cc1 [compound 2, N-(4-((4-(Trifluoromethyl)benzyl)amino)phenyl)heptanamide] | – | – | still active although with slightly lower efficacy | 0.0326±0.0063 | – |
| CCCCCCC(=O)Nc1ccc(OCc2ccc(C(F)(F)F)cc2)cc1N [compound 31, N-(2-Amino-4-((4-(trifluoromethyl)benzyl)oxy)phenyl)heptanamide] | – | – | failed to activate Kv7.2/ Kv7.3 channels | 0.0057±0.0005 | – |
| CCCCCCC(=O)Nc1ccc(N(Cc2ccc(C(F)(F)F)cc2)C(C)=O)cc1N [compound 28, N-(2-Amino-4-(N-(4-(trifluoromethyl)benzyl)acetamido)phenyl)heptanamide] | – | – | markedly reduced activity | 0.0138±0.0024 | – |
| CCCCCCC(=O)Nc1ccc(NCCc2ccc(F)cc2)cc1N [compound 42, N-(2-Amino-4-((4-fluorophenethyl)amino)phenyl)heptanamide] | – | – | complete loss of activity | 0.0098±0.0010 | – |
| Nc1cc(NCc2ccc(C(F)(F)F)cc2)ccc1NC(=O)C1CC1 [compound 18, N-(2-Amino-4-((4-(trifluoromethyl)benzyl)amino)phenyl)cyclopropanecarboxamide] | – | – | – | 0.0346±0.0078 | – |
